Experiment [1] deals with Hyperlipidemic Hamster. The experiment is described as follows: In Vivo Assay of Hypolipidemic Agents Using the Hyperlipidemic Hamster. More on the design: species or system Hamsters. Conditions: oral gavage once daily, seven days, versus control. The procedure: In Vivo Assay of Hypolipidemic Agents Using the Hyperlipidemic Hamster
Hamsters are separated into groups of six and given a control cholesterol diet (Purina Chow #5001 containing 0.5% cholesterol) for seven days. Diet consumption is monitored to determine dietary cholesterol exposure in the face of test compounds. The animals are dosed with the test compound once daily beginning with the initiaton of diet. Dosing is by oral gavage of 0.2 mL of corn oil alone (control group) or solution (or suspension) of test compound in corn oil. All animals moribund or in poor physical condition are euthanized. After seven days, the animals are anesthetized by IM injection of ketamine and sacrificed by decapitation. Blood is collected into vacutainer tubes containing EDTA for plasma lipid analysis and the liver excised for tissue lipid analysis. Data is reported as percent reduction of lipid versus control.

The test system of experiment [2] is ACAT. The experiment is described as follows: ACAT Assay (in vitro). Type of experiment: biochemical. Conditions: 10 µM test compound; rat liver microsomes. The procedure: This assay measures the activity of ACAT by measuring the ACAT-mediated transfer of tritiated oleic acid from acyl-CoA to cholesterol to give labelled cholesterol oleate. Rat liver microsomes are used as the source of ACAT. Assays are performed in round bottom microtiterplates using a total incubation volume of 50 µL. Each incubation well receives 10 µl assay buffer (0.5M KHPO₄, 10 µM dithiothreitol, pH 7.4), 7.5 µL of 40 mg/mL BSA (Bovine Serum Albumin) and 12.5 µg of microsomal protein. The test compound (in sufficient amount to bring the final concentration to from 0.1 to 25 µM), reference compound, or vehicle control is added and the final volume brought to 47 µL. The microtiterplate is then floated on the surface of a 37°C water bath for fifteen minutes. Incubations are started by the addition of 3 µL ³H-acyl CoA (1µCi/well, final concentration of 10 µM acyl CoA). The plate is then returned to the water bath for 15 minutes. The incubations are then terminated by application of 15 µL from each incubation to individual lanes on a thin layer plate (Silica Gel GF 20 x 20 cm). Standards are applied to several lanes so that the cholesterol ester band can be identified. After drying, the plates are eluted with 90:10:1 petroleum ether:ether:HOAc. The standards are visualized via iodine vapor, and the regions corresponding to cholesterol ester are scraped into 7 mL scintillation vials. 4 mL of scintillant are added to each vial, and the radioactivity quantified. Background count is determined by the boiled controls. Full activity is determined by activity in the presence of vehicle. The percent inhibition is calculated by subtracting the background from both control and test samples, and the test value is calculated as a percentage of the control. For IC₅₀ determinations, the inhibition is plotted against drug doses on a log scale and the concentration at which 50% inhibition is obtained is determined.
In general terms: Liver microsomes are a subcellular fraction often used to study metabolism.

With `COc1ccc([C@H]2CCc3ccccc3[C@H]2NC(=O)C(c2ccccc2)c2ccccc2)cc1` (relative stereo) [Example 1, cis-N-[-2-(4'-methoxyphenyl)-1,2,3,4-tetrahydronaphthalen-1-yl]-α-phenylbenzeneacetamide], the “% Reduction in cholesteryl esters (dose in mpk)” value (shortened to “% Reduction”) in experiment [1] (dose 50 mpk) is given as 0 (50) %.

As to `Cc1cc([C@H]2Cc3ccccc3[C@H]2NC(=O)C(c2ccccc2)c2ccccc2)cc(C)c1O` (relative stereo) [Example 9A, (+)-cis-N-[2-(3',5'-dimethyl-4'-hydroxyphenyl)indanyl]-α-phenylbenzeneacetamide], in experiment [2], the “ACAT % Inhibition dose = 10 µM” value was 97%. In addition, the “% Reduction” value in experiment [1] (dose 50 mpk) was -60 (50) %.

For `Nc1ccc([C@@H]2Cc3ccccc3[C@H]2NC(=O)C(c2ccccc2)c2ccccc2)cc1` (relative stereo) [Example 5, trans-N-[2-(4'-aminophenyl)indanyl]-α-phenylbenzeneacetamide], the “ACAT % Inhibition dose = 10 µM” value in experiment [2] is reported as 94%.

In the case of `CCCCCCCC/C=C\CCCCCCCC(=O)N[C@@H]1c2ccccc2CC[C@H]1c1ccc(O)cc1` (relative stereo) [Example 4, trans-N-[2-(4'-hydroxyphenyl)-1,2,3,4-tetrahydronaphth-1-yl]oleamide], the “ACAT % Inhibition dose = 10 µM” value in experiment [2] came out at 94%. For the same compound, the “% Reduction” value in experiment [1] (dose 50 mpk) is 0 (50) %.

Take `Cc1cc([C@H]2Cc3ccccc3[C@H]2NC(=O)C(c2ccccc2)c2ccccc2)ccc1O` (relative stereo) [Example 9, (+)-cis-N-[2-[4'-hydroxy-3'-methylphenyl)indanyl]-α-phenylbenzeneacetamide]: in experiment [2], the “ACAT % Inhibition dose = 10 µM” value came to 98%. Moreover, the “% Reduction” value in experiment [1] (dose 50 mpk) is recorded as -66 (50) %.

Turning to `O=C(N[C@@H]1c2ccccc2C[C@@H]1c1cc(Cl)c(O)c(Cl)c1)C(c1ccccc1)c1ccccc1` (relative stereo) [Example 8A, cis-N-[2-(3',5'-dichloro-4'-hydroxyphenyl)indanyl]-α-phenylbenzeneacetamide], the “ACAT % Inhibition dose = 10 µM” value in experiment [2] was 99%. Also, the “% Reduction” value in experiment [1] (dose 50 mpk) was -14 (50) %.

For the compound `Nc1cccc([C@H]2Cc3ccccc3[C@H]2NC(=O)C(c2ccccc2)c2ccccc2)c1` (relative stereo) [Example 5A, cis-N-[2-(3'-aminophenyl)-indanyl]-α-phenylbenzeneacetamide], the “ACAT % Inhibition dose = 10 µM” value in experiment [2] was 95%. For the same compound, the “% Reduction” value in experiment [1] (dose 10 mpk) is listed as 0 (10) %.

In the case of `O=C(N[C@@H]1c2ccccc2C[C@@H]1c1ccc(O)c(Cl)c1)C(c1ccccc1)c1ccccc1` (relative stereo) [Example 8, cis-N-[2-(3'-chloro-4'-hydroxyphenyl)-indanyl]-α-phenylbenzeneacetamide], the “ACAT % Inhibition dose = 10 µM” value in experiment [2] is reported as 99%. The “% Reduction” value in experiment [1] (dose 50 mpk) is -40 (50) %.

For the compound `COc1ccc([C@H]2Cc3ccccc3[C@H]2NC(=O)C(c2ccccc2)c2ccccc2)cc1` (relative stereo) [Example 2, cis-N-[2-(4'-methoxyphenyl)indanyl]-α-phenylbenzeneacetamide], the “ACAT % Inhibition dose = 10 µM” value in experiment [2] is recorded as 96%. The “% Reduction” value in experiment [1] (dose 50 mpk) is reported as -17 (50) %.

As for `O=C(N[C@@H]1c2ccccc2C[C@@H]1c1ccc(O)cc1)C(c1ccccc1)c1ccccc1` (relative stereo) [Example 3, cis-N-[2-(4'-hydroxyphenyl)indanyl]-α-phenylbenzeneacetamide], the “ACAT % Inhibition dose = 10 µM” value in experiment [2] is given as 99%. Moreover, the “% Reduction” value in experiment [1] (dose 10 mpk) was -71%; in experiment [1] (dose 25 mpk), -87.5%; in experiment [1] (dose 50 mpk), -89%.

As to `O=C(N[C@@H]1c2ccccc2C[C@@H]1c1ccc(O)c(Br)c1)C(c1ccccc1)c1ccccc1` (relative stereo) [Example 7, (+)-cis-N-[2-(3'-bromo-4'-hydroxyphenyl)indanyl]-α-phenylbenzeneacetamide], the “ACAT % Inhibition dose = 10 µM” value in experiment [2] came out at 100%. Moreover, the “% Reduction” value in experiment [1] (dose 50 mpk) is -40 (50) %.

For the compound `COc1ccc([C@@H]2CCc3ccccc3[C@H]2NC(=O)N(c2ccccc2)c2ccccc2)cc1` (relative stereo) [Example 6, trans-N'-[2-(4'-methoxyphenyl)-1,2,3,4-tetrahydronaphthalen-1-yl]-N,N-diphenylurea], in experiment [2], the “ACAT % Inhibition dose = 10 µM” value worked out at 97%. In addition, in experiment [1] (dose 50 mpk), the “% Reduction” value is listed as -16 (50) %.

These data come from patent EP0508425A1, “Bicyclic amides as inhibitors of acyl-coenzyme a: cholesterol acyl transferase” (SCHERING CORPORATION, priority 1991, dated 1992).
